31 molecules from patent publication US10875875B2, “Propionic acid derivatives and methods of use thereof” (Aviara Pharmaceuticals, Inc., priority 2017, dated 2020) can be followed below.

The test has as its target α4β1 (Homo sapiens, UniProt P05556+P13612). Nature of the test: α4β1 integrin inhibition, IC50. It counts as binding. The note with it: read-out: α4β1 IC50.

Chain of α4β1 (P13612 34-1032): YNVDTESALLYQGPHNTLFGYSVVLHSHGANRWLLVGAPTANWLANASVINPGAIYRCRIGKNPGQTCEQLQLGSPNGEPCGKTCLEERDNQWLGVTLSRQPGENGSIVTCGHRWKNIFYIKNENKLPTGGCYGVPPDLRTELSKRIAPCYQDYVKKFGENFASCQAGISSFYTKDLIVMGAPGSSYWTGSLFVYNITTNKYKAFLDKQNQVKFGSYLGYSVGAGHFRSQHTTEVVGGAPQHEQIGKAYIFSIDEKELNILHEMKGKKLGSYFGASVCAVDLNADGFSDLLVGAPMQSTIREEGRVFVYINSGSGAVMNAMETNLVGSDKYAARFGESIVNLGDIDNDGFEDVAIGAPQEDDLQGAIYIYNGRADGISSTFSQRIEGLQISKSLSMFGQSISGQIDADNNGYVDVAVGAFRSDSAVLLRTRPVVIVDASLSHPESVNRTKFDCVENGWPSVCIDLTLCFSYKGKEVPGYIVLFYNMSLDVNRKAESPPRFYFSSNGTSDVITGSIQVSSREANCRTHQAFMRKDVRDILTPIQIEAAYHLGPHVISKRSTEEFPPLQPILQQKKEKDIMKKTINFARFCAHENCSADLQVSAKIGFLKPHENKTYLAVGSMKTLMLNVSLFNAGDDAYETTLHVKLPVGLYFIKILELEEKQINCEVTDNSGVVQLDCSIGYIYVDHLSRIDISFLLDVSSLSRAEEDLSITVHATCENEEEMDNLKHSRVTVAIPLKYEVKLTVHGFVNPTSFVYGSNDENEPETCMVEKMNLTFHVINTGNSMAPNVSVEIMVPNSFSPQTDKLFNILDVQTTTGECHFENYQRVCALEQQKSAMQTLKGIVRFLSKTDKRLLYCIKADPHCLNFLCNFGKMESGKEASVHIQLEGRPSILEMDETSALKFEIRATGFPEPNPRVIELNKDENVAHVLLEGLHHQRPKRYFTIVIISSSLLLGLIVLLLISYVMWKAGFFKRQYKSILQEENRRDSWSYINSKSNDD
Chain of α4β1 (P05556 21-798): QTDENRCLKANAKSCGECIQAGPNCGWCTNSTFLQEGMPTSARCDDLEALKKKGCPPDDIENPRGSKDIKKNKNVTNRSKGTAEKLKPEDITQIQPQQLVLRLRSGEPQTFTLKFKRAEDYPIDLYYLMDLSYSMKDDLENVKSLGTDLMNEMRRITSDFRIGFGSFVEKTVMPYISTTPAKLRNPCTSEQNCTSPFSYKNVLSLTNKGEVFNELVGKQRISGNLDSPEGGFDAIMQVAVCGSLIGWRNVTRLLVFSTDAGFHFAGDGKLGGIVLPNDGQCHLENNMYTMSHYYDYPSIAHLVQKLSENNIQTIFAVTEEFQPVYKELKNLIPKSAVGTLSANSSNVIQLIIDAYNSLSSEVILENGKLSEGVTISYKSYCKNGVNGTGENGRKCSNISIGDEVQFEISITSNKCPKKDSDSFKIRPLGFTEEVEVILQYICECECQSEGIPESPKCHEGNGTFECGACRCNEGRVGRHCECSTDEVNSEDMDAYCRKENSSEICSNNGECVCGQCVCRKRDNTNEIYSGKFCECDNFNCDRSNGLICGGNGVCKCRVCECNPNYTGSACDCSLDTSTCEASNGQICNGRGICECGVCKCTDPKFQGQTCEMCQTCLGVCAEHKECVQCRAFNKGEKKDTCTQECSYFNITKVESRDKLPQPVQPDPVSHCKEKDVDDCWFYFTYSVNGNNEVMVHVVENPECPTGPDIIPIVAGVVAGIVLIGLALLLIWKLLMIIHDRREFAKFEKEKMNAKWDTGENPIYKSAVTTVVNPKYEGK

Consider `COc1ccc(-c2cccc([C@H](CC(=O)O)NC(=O)Nc3c(O)ccn(C)c3=O)c2)cn1` [1-508, sodium (S)-3-(3-(6-methoxypyridin-3-yl)phenyl)-3-(3-(1-methyl-4-oxido-2-oxo-1,2-dihydropyridin-3-yl)ureido)propanoate], for which the concentration for half-maximal inhibition (IC50) (usually the concentration at which inhibition is half-maximal) is below 20 nM.

Consider `COc1cccc(-c2cccc([C@H](CC(=O)O)NC(=O)Nc3c(O)ccn(C)c3=O)c2)c1F` [1-509, sodium (S)-3-(2′-fluoro-3′-methoxybiphenyl-3-yl)-3-(3-(1-methyl-4-oxido-2-oxo-1,2-dihydropyridin-3-yl)ureido)propanoate], for which the IC50 was below 20 nM. Then `Cn1ccc(O)c(NC(=O)N[C@@H](CC(=O)O)c2cccc(-c3ccc(OC(F)(F)F)cc3)c2)c1=O` [1-510, sodium (S)-3-(3-(1-methyl-4-oxido-2-oxo-1,2-dihydropyridin-3-yl)ureido)-3-(4′-(trifluoromethoxy)biphenyl-3-yl)propanoate], with below 20 nM.

Take `Cc1cn(C)c(=O)c(NC(=O)NC(CC(=O)O)c2cccc(-c3ccc(Cl)cc3Cl)c2)c1O` (stereo not shown) [1-511, sodium 3-(2′,4′-dichlorobiphenyl-3-yl)-3-(3-(1,5-dimethyl-4-oxido-2-oxo-1,2-dihydropyridin-3-yl)ureido)propanoate]: the IC50 is below 200 nM. For the molecule `Cn1ccc(O)c(NC(=O)N[C@@H](CC(=O)O)c2cccc(-c3ccccc3OC(F)(F)F)c2)c1=O` [1-512, sodium (S)-3-(3-(1-methyl-4-oxido-2-oxo-1,2-dihydropyridin-3-yl)ureido)-3-(2′-(trifluoromethoxy)biphenyl-3-yl)propanoate], the IC50 is below 20 nM. As to `Cn1c2c(c(O)c(NC(=O)N[C@@H](CC(=O)O)c3cccc(-c4ccc(F)cc4F)c3)c1=O)CCC2` [1-513, sodium (S)-3-(2′,4′-difluorobiphenyl-3-yl)-3-(3-(1-methyl-4-oxido-2-oxo-2,5,6,7-tetrahydro-1H-cyclopenta[b]pyridin-3-yl)ureido)propanoate], the IC50 is below 20 nM.

With `Cn1ccc(O)c(NC(=O)N[C@@H](CC(=O)O)c2cccc(-c3cccc(OC(F)(F)F)c3)c2)c1=O` [1-514, sodium (S)-3-(3-(1-methyl-4-oxido-2-oxo-1,2-dihydropyridin-3-yl)ureido)-3-(3′-(trifluoromethoxy)biphenyl-3-yl)propanoate], the IC50 is below 20 nM. Regarding `Cn1c(=O)c(NC(=O)N[C@@H](CC(=O)O)c2cccc(-c3ccc(F)cc3F)c2)c(O)c2sccc21` [1-515, sodium (S)-3-(2′,4′-difluorobiphenyl-3-yl)-3-(3-(4-methyl-7-oxido-5-oxo-4,5-dihydrothieno[3,2-b]pyridin-6-yl)ureido)propanoate], the IC50 is below 20 nM. Under `Cn1ccc(O)c(NC(=O)N[C@@H](CC(=O)O)c2cccc(-c3ccc4c(c3)OCO4)c2)c1=O` [1-516, sodium (S)-3-(3-(benzo[d][1,3]dioxol-5-yl)phenyl)-3-(3-(1-methyl-4-oxido-2-oxo-1,2-dihydropyridin-3-yl)ureido)propanoate] stands below 20 nM; under `Cc1cn(C)c(=O)c(NC(=O)N[C@@H](CC(=O)O)c2cccc(-c3ccc4c(c3)OCO4)c2)c1O` [1-517, sodium (S)-3-(3-(benzo[d][1,3]dioxol-5-yl)phenyl)-3-(3-(1,5-dimethyl-4-oxido-2-oxo-1,2-dihydropyridin-3-yl)ureido)propanoate], below 20 nM. Take `Cn1ccc(O)c(NC(=O)N[C@@H](CC(=O)O)c2cccc(-n3ncc4ccccc43)c2)c1=O` [1-518, sodium (S)-3-(3-(1H-indazol-1-yl)phenyl)-3-(3-(1-methyl-4-oxido-2-oxo-1,2-dihydropyridin-3-yl)ureido)propanoate]: the half-inhibitory concentration (IC50) is below 20 nM. Then `COc1ccc([C@H](CC(=O)O)NC(=O)Nc2c(O)ccn(C)c2=O)cc1-c1ccc(F)cc1F` [1-519, sodium (S)-3-(2′,4′-difluoro-6-methoxybiphenyl-3-yl)-3-(3-(1-methyl-4-oxido-2-oxo-1,2-dihydropyridin-3-yl)ureido)propanoate], with below 20 nM. For the molecule `CCn1ccc2ccc(-c3cccc([C@H](CC(=O)O)NC(=O)Nc4c(O)ccn(C)c4=O)c3)cc21` [1-521, sodium (S)-3-(3-(1-ethyl-1H-indol-6-yl)phenyl)-3-(3-(1-methyl-4-oxido-2-oxo-1,2-dihydropyridin-3-yl)ureido)propanoate], the IC50 is below 20 nM. Then `Cn1ccc(O)c(NC(=O)N[C@@H](CC(=O)O)c2cccc(-n3cccn3)c2)c1=O` [1-522, sodium (S)-3-(3-(1H-pyrazol-1-yl)phenyl)-3-(3-(1-methyl-4-oxido-2-oxo-1,2-dihydropyridin-3-yl)ureido)propanoate], with below 20 nM; and `Cn1ccc(O)c(NC(=O)N[C@@H](CC(=O)O)c2cc(-c3ccc(F)cc3F)cs2)c1=O` [1-523, sodium (S)-3-(4-(2,4-difluorophenyl)thiophen-2-yl)-3-(3-(1-methyl-4-oxido-2-oxo-1,2-dihydropyridin-3-yl)ureido)propanoate], with below 20 nM; and `COc1cccc(-c2cc([C@H](CC(=O)O)NC(=O)Nc3c(O)ccn(C)c3=O)ccc2OC)c1` [1-524, sodium (S)-3-(3′,6-dimethoxybiphenyl-3-yl)-3-(3-(1-methyl-4-oxido-2-oxo-1,2-dihydropyridin-3-yl)ureido)propanoate], with below 20 nM. In the case of `Cn1c(=O)c(NC(=O)N[C@@H](CC(=O)O)c2cccc(-c3ccc(F)cc3F)c2)c(O)c2cccnc21` [1-526, sodium (S)-3-(2′,4′-difluorobiphenyl-3-yl)-3-(3-(1-methyl-4-oxido-2-oxo-1,2-dihydro-1,8-naphthyridin-3-yl)ureido)propanoate], the IC50 is below 200 nM. Then `COc1cccc(-c2csc([C@H](CC(=O)O)NC(=O)Nc3c(O)ccn(C)c3=O)c2)c1` [1-528, sodium (S)-3-(4-(3-methoxyphenyl)thiophen-2-yl)-3-(3-(1-methyl-4-oxido-2-oxo-1,2-dihydropyridin-3-yl)ureido)propanoate], with below 20 nM; and `COc1ccc([C@H](CC(=O)O)NC(=O)Nc2c(O)ccn(C)c2=O)cc1-c1ccccc1` [1-529, sodium (S)-3-(6-methoxybiphenyl-3-yl)-3-(3-(1-methyl-4-oxido-2-oxo-1,2-dihydropyridin-3-yl)ureido)propanoate], with below 20 nM; and `Cn1ccc(O)c(NC(=O)N[C@@H](CC(=O)O)c2cc(-c3cccc(Cl)c3)cs2)c1=O` [1-530, sodium (S)-3-(4-(3-chlorophenyl)thiophen-2-yl)-3-(3-(1-methyl-4-oxido-2-oxo-1,2-dihydropyridin-3-yl)ureido)propanoate], with below 20 nM. Then `CCn1ccc(O)c(NC(=O)N[C@@H](CC(=O)O)c2cccc(-c3ccc(F)cc3F)c2)c1=O` [1-531, sodium (S)-3-(2′,4′-difluorobiphenyl-3-yl)-3-(3-(1-ethyl-4-oxido-2-oxo-1,2-dihydropyridin-3-yl)ureido)propanoate], with below 20 nM; and `Cn1ccc(O)c(NC(=O)N[C@@H](CC(=O)O)c2cccc(-c3cccs3)c2)c1=O` [1-532, sodium (S)-3-(3-(1-methyl-4-oxido-2-oxo-1,2-dihydropyridin-3-yl)ureido)-3-(3-(thiophen-2-yl)phenyl)propanoate], with below 20 nM; and `COc1ccc([C@H](CC(=O)O)NC(=O)Nc2c(O)ccn(C)c2=O)cc1-c1cccc(Cl)c1` [1-534, sodium (S)-3-(3′-chloro-6-methoxybiphenyl-3-yl)-3-(3-(1-methyl-4-oxido-2-oxo-1,2-dihydropyridin-3-yl)ureido)propanoate], with below 20 nM.

With `COc1ccc([C@H](CC(=O)O)NC(=O)Nc2c(O)ccn(C)c2=O)cc1-c1cccc(OC(F)(F)F)c1` [1-535, sodium (S)-3-(6-methoxy-3′-(trifluoromethoxy)biphenyl-3-yl)-3-(3-(1-methyl-4-oxido-2-oxo-1,2-dihydropyridin-3-yl)ureido)propanoate], the IC50 is below 20 nM.

`COc1ccc([C@H](CC(=O)O)NC(=O)Nc2c(O)ccn(C)c2=O)cc1-c1ccc(OC(F)(F)F)cc1` [1-536, sodium (S)-3-(6-methoxy-4′-(trifluoromethoxy)biphenyl-3-yl)-3-(3-(1-methyl-4-oxido-2-oxo-1,2-dihydropyridin-3-yl)ureido)propanoate]: the IC50 is below 20 nM. Then `Cn1ccc(O)c(NC(=O)N[C@@H](CC(=O)O)c2cccc(-c3ccc(Cl)s3)c2)c1=O` [1-538, sodium (S)-3-(3-(5-chlorothiophen-2-yl)phenyl)-3-(3-(1-methyl-4-oxido-2-oxo-1,2-dihydropyridin-3-yl)ureido)propanoate], with below 20 nM. Then `Cn1ccc(O)c(NC(=O)N[C@@H](CC(=O)O)c2cccc(-n3ccnc3)c2)c1=O` [1-539, sodium (S)-3-(3-(1H-imidazol-1-yl)phenyl)-3-(3-(1-methyl-4-oxido-2-oxo-1,2-dihydropyridin-3-yl)ureido)propanoate], with below 20 nM. Under `Cc1cscc1-c1cccc([C@H](CC(=O)O)NC(=O)Nc2c(O)ccn(C)c2=O)c1` [1-540, sodium (S)-3-(3-(1-methyl-4-oxido-2-oxo-1,2-dihydropyridin-3-yl)ureido)-3-(3-(4-methylthiophen-3-yl)phenyl)propanoate] stands below 20 nM; under `Cc1ccc([C@H](CC(=O)O)NC(=O)Nc2c(O)ccn(C)c2=O)cc1-c1ccc(F)cc1F` [1-541, sodium (S)-3-(2′,4′-difluoro-6-methylbiphenyl-3-yl)-3-(3-(1-methyl-4-oxido-2-oxo-1,2-dihydropyridin-3-yl)ureido)propanoate], below 20 nM. `COc1cccc(-c2cc([C@H](CC(=O)O)NC(=O)Nc3c(O)ccn(C)c3=O)ccc2C)c1` [1-542, sodium (S)-3-(3′-methoxy-6-methylbiphenyl-3-yl)-3-(3-(1-methyl-4-oxido-2-oxo-1,2-dihydropyridin-3-yl)ureido)propanoate]: the IC50 is below 20 nM. Under `Cn1ccc(O)c(NC(=O)N[C@@H](CC(=O)O)c2cccc(-c3cc[nH]c3)c2)c1=O` [1-544, sodium (S)-3-(3-(1H-pyrrol-3-yl)phenyl)-3-(3-(1-methyl-4-oxido-2-oxo-1,2-dihydropyridin-3-yl)ureido)propanoate] stands below 20 nM.
